Values of other authors as cited in patent US20190054051A1, “DOPA Formulations for Treatments of Parkinson's Disease” (The Board of Trustees of the Leland Stanford Junior …, priority 2017, published 2019).

How the values were obtained:
[1] = cited from earlier work
[2] = system: animal models of PD; details: previously reported; cited from earlier work

## C[C@@](Cc1ccc(O)c(O)c1)(NN)C(=O)O [Carbidopa, N-amino-α-methyl-3-hydroxy-L-tyrosine monohydrate]
[1]
  solubility in water: slightly soluble in water

## NC(N)=Nc1nc(CSCCC(N)=NS(N)(=O)=O)cs1 [famotidine]
[2]
  L-DOPA induced dyskinesia (dyskinetic behavior following DOPA treatment): decreased the dyskinetic behavior
